Assays:
[1] = molecular target: T1, beta-tryptase (uniprot P20231) (Homo sapiens, UniProt P20231); experiment: Tryptase enzyme activity assay; assay type: biochemical; conditions: 10 µM, n=1
T1 construct: made in house; host or cells: Pichia pastoris
Description: Tryptase Enzyme Activity Assay. The tryptase assay was carried out using beta-tryptase (uniprot P20231) produced in Pichia pastoris and using Tos-Gly-Pro-Lys-pNA as substrate (25 mM stock in ethanol) in 100 mM Tris pH 8.0, 100 mM NaCl, 10% glycerol, 0.5 mg mL-1 BSA, 0.1% DDM. Substrate (250 µM) was pre-incubated with test compound (10 µM) in assay buffer (200 ul) in clear bottom 96 well Greiner plates at room temperature. The re action was started by the addition of tryptase to a final concentration of 4.7 nM. Co nversion was recorded in a plate reader by monitoring the increase of absorption at λ = 405 nm over time. Activity was determined by linear fit of initial rate.

hPAR2 [2] = molecular target: T2, hPAR2 (Homo sapiens, UniProt P55085); experiment: pERK1/2 HTRF assay, inhibition of SLIGRL-NH2 in U2OS-hPAR2 cells; assay type: cell-based; conditions: SLIGRL-NH2, U2OS-hPAR2; mean ± s.e.m.; read-out: pERK1/2 (hPAR2) pIC50 (converted)
T2 sequence (P55085 26-397): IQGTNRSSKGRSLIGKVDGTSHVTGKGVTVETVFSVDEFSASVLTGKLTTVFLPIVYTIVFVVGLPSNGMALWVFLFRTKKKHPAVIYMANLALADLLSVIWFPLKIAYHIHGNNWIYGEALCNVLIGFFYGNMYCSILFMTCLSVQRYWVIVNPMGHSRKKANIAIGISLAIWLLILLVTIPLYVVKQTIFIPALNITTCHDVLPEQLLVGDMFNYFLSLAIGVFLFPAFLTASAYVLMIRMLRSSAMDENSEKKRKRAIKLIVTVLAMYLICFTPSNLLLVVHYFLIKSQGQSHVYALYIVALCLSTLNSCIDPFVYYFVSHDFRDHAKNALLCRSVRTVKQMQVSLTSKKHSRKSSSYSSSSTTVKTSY
Description: Phosphorylation of ERK1/2 was measured in U2OS-hPAR2 cells using Phospho-ERK1/2 (Thr202/Tyr204) assay kit (64ERKPEH Cisbio) and the 2 plate manufacturer’s protocol with the following modifications. Cells were seeded in McCoy’s 5A media containing 10% FBS at 15,000 cells per well in 384-well plates and incubated overnight at 37 °C, 5% CO2. Antagonist compounds (30 µM–1 nM) were incubated with the cells for 30 min prior to the addition of agonist SLIGRL-NH2 (10 µM) at EC80 and further incubation for 5 min at 37 °C. The supernatant was removed from the wells and lysis buffer was added to the cells and incubated with shaking at room temperature for 30 min. The cell lysate was transferred into a small-volume 384-well plate containing detection antibodies and incubated for 4 h at room temperature in the dark. Plates were read for HTRF signal on PHERAstar (BMG LabTech). In addition, phosphorylation of ERK1/2 was measured in CHO-hPAR2 using AlphaLISA SureFire Ultra pERK1/2 (Thr202/Tyr204) (Perkin Elmer). Cells were seeded at a density of 2000 cells per well in a 384-well proxiplate and incubated overnight. […] After incubation, cell lysis buffer was added with shaking for 30 min. Antibodies and beads were added and incubated for 4 h at room temperature. AlphaLISA signal was measured using a PHERAstar (BMG LabTech).
(§1) Binding data were analysed using the One site – Fit Ki model in GraphPad Prism 8 (GraphPad Software) to determine binding affinity. Pharmacology in vitro potency data was analysed with a 4-parameter logistic fit using the equation y = Bottom + (Top − Bottom)/[…] where y is the response, x is the 10-logarithm of the drug concentration, Bottom is no response and Top is full response in GraphPad Prism 8 or Genedata Screener (Genedata). pEC50 and pIC50 data are presented as mean ± standard error of the mean (s.e.m.) derived from the number of independent experiments stated. Schild slope analysis was calculated using Graphpad Prism 8 Gaddum/Schild EC50 global fitting (shared model parameters between all data sets) competitive model. […] Schild slope quantifies the shifts in agonist response in the presence of antagonist, a Schild slope of 1 indicates the antagonist is competitive and extra-sum-of-squares F-test (p < 0.05) was used to compare the calculated Schild slope against a hypothetical Schild slope of 1. […] The relative activity was calculated using (EmaxEC50’)/(Emax’EC50) with the Hill slope help constant at 1. EC50’ and Emax’ denote the EC50 and Emax in the absence of allosteric modulator, while EC50 and Emax denote those measured in the presence of allosteric modulator. When the Hill slope = 1, the relative activity plot approaches an asymptote corresponding to the estimate of the γ value.

hPAR2 [3] = molecular target: T2, hPAR2; experiment: β-arrestin-2 recruitment assay, inhibition of SLIGRL-NH2 in U2OS-hPAR2 cells; assay type: cell-based; conditions: SLIGRL-NH2, U2OS-hPAR2; mean ± s.e.m.; read-out: β-arrestin (hPAR2) pIC50 (converted)
Description: β‐Arrestin-2 recruitment was measured in U2OS-hPAR2 cells using the DiscoverX assay kit, according to the manufacturer’s instructions. Briefly, cells were seeded in McCoy’s 5A media containing 10% FBS at 4000 cells per well in 384-well plates and incubated overnight at 37 °C, 5% CO2. Antagonist compounds (30 µM–1 nM) were incubated with the cells for 30 min prior to the addition of agonist SLIGRL-NH2 (10 µM) at EC80 and further incubation for 90 min at 37 °C. Working detection solution (12 µl) was then added to each well, incubated at room temperature in the dark for 60 min and the chemiluminescence signal read on the EnVision microplate reader (Perkin Elmer).
as §1

hPAR2 [4] = molecular target: T2, hPAR2; experiment: Ca^2+ flux assay (FLIPR), inhibition of SLIGRL-NH2 activation in 1321N1-hPAR2 cells; assay type: cell-based; conditions: SLIGRL-NH2, 1321N1-hPAR2 cells; mean ± s.e.m.; read-out: Ca^2+ flux (hPAR2) pIC50 (converted)
Description: Cells were loaded with Fluo-8 NW calcium dye (AAT Bioquest) for 30 min at 37 °C before compounds in Hank’s balanced salt solution (HBSS, ThermoFisher Scientific) with 20 mM HEPES (ThermoFisher Scientific), 0.1% bovine serum albumin (BSA, Sigma) and 0.5% DMSO were added and simultaneously evaluated for changes in intracellular [Ca^2+] using FLIPR TETRA (Molecular Devices) to detect agonism. For each concentration, the difference between the maximum peak Ca^2+ response and baseline response is reported. […] Antagonism experiments were also carried out on 1321N1-PAR2[WT], 1321N1-PAR2[F154A], and 1321N1-PAR2[G157C] as described. Experiments with trypsin in 1321N1-hPAR2 cells were performed in the presence of 1 µM Vorapaxar (Chemtronica) to remove any interference of PAR1 activity. […] Antagonism experiments for CHO-hPAR2 and HT-29 cells were performed in 96-well plates at 30,000 cells/well. Cells were loaded with Fluo-3 AM calcium dye (Sigma-Aldrich) for 60 min at 37 °C in HBSS with 1% FBS, 0.2% pluronic acid, 20 mM HEPES and 2.5 mM probenecid prior to the addition of antagonist. The antagonist was pre-incubated for 60 min at 37 °C followed by the addition of bovine trypsin (30 nM) at EC80. Intracellular [Ca^2+] flux was measured using FLIPR TETRA (Molecular Devices) and the difference between the maximum peak Ca^2+ response and baseline response is reported.
as §1

hPAR2 [5] = molecular target: T2, hPAR2; experiment: Ca^2+ flux assay, inhibition of trypsin activation in 1321N1-hPAR2 cells (with 1 µM Vorapaxar); assay type: cell-based; conditions: 1321N1-hPAR2 cells, 1 µM Vorapaxar
hPAR2 [6] = molecular target: T2, hPAR2; experiment: IP1 HTRF assay, inhibition of SLIGRL-NH2 in 1321N1-hPAR2 cells; assay type: cell-based; conditions: SLIGRL-NH2, 1321N1-hPAR2 cells; mean ± s.e.m.; read-out: IP1 (hPAR2) pIC50 (converted)
Description: Inhibition of PAR2-induced inositol-1-phosphate (IP1) production was measured in 1321N1-hPAR2 cells using IP-One Gq HTRF assay kit (Cisbio). […] Next, EC80 of SLIGRL-NH2 (70 µM) supplemented with 50 mM LiCl was added and incubated for 60 min at 37 °C. Detection of IP1 production was performed according to the manufacturer’s protocol and HTRF was measured using PHERAstar (BMG LabTech). Data were normalised to [IP1] using a standard curve.
as §1

rat PAR2 = molecular target: T3, rat PAR2 (Rattus norvegicus, UniProt Q63645); experiment: Ca^2+ flux assay, inhibition of SLIGRL-NH2 activation in rat KNRK cells; assay type: cell-based; conditions: SLIGRL-NH2, rat PAR2 in KNRK cells; mean ± s.e.m.; read-out: Ca^2+ flux (rPAR2) pIC50 (converted)
T3 construct: a rat KNRK cell line with endogenous expression of rat PAR2; host or cells: rat KNRK cells
T3 sequence (Q63645 26-397): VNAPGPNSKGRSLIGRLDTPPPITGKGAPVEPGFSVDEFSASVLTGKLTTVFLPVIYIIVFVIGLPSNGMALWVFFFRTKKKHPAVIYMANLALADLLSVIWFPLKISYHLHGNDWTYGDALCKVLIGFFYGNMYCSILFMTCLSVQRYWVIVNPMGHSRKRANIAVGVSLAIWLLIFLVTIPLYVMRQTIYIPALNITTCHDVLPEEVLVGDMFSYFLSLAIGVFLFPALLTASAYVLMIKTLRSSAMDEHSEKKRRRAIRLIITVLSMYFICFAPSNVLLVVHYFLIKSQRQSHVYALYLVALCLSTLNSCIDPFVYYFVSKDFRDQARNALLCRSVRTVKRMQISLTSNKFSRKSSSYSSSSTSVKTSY

T1 sequence (P20231 31-275): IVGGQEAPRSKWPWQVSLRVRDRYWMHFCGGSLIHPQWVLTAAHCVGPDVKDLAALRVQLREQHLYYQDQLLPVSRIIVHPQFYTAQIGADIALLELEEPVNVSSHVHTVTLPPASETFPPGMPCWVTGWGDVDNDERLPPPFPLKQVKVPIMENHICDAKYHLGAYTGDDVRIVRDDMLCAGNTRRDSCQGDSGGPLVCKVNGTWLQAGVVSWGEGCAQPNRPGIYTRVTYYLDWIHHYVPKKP

inhibition of tryptase activity [1]	IC50 (hPAR2 [2])	IC50 (hPAR2 [3])	IC50 (hPAR2 [4])	shape of inhibition of trypsin-induced Ca^2+ mobilisation (hPAR2 [5])	IC50 (hPAR2 [6])	IC50 (rat PAR2)	SMILES
completely	–	–	–	–	–	–	N=C(N)Nc1ccc(C(=O)Oc2ccc([N+](=O)[O-])cc2)cc1 [4-nitrophenyl-4-guanidinobenzoate, reference compound]
–	200 nM	63.1 nM	7.94 nM	biphasic inhibition curves	79.4 nM	5.01 nM	C[C@@H](C1CCOCC1)n1c(-c2cc3c(cc2Br)OCO3)nc2cc(C(=O)Nc3ccc(C#N)cc3)ccc21 [AZ7126]
–	1260 nM	380 nM	20 nM	biphasic inhibition curves	302 nM	7.94 nM	C[C@@H](C1CCCCC1)n1c(-c2cc3c(cc2Br)OCO3)nc2cc(C(=O)Nc3ccccc3)ccc21 [AZ8935]
